Reference: patent publication US11377425B1, “Small molecule modulators of IL-17” (LEO Pharma A/S, priority 2018, dated 2022)

Target: T1, human IL-17AA (Homo sapiens, UniProt Q16552)
T1 construct: host or cells: HEK (human embryonic kidney) cells
T1 sequence (Q16552 24-155): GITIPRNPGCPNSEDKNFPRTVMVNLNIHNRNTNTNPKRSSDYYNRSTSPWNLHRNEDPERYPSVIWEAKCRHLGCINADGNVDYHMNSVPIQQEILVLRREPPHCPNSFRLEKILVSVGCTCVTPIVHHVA
Test: IL-8 release assay in human epithelial keratinocytes adult (HEKa)
Type: cell-based
Settings: HEKa cells, 3 ng/mL HEK-human IL-17AA + 10 ng/mL human TNFalpha; read-out: Rel EC50 IL-8 release assay
Summary of the method: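 Adult human epidermal keratinocytes stimulated 68-72 h at 37 °C with 3 ng/mL HEK-derived human IL-17AA plus 10 ng/mL TNF-alpha (final) in the presence of compound; TNF-alpha alone defines 100% inhibition. Secreted IL-8 measured by HTRF as percent of controls; relative IC50/Emax from four-parameter fit (r^2>0.9), cytotoxicity by PrestoBlue.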

Row | SMILES | EC50 [nM]
1 | CCn1nccc1C(=O)N[C@H](C(=O)Nc1ccc(-n2c(C)c[nH]c2=O)cc1)C(C1CC1)C1CC1 [Example 370, N-[(1S)-1-(dicyclopropylmethyl)-2-[4-(4-methyl-2-oxo-1H-imidazol-3-yl)anilino]-2-oxo-ethyl]-2-ethyl-pyrazole-3-carboxamide] | > 1000
2 | CC(C)n1nccc1C(=O)N[C@H](C(=O)Nc1ccc(-c2c(C(F)(F)F)ncn2C)cc1)C1CCCCC1 [Example 371A, N-[(1S)-1-cyclohexyl-2-[4-[3-methyl-5-(trifluoromethyl)imidazol-4-yl]anilino]-2-oxo-ethyl]-2-isopropyl-pyrazole-3-carboxamide] | 100 to 1000
3 | CC(C)n1nccc1C(=O)N[C@H](C(=O)Nc1ccc(-c2ncn(C)c2C(F)(F)F)cc1)C1CCCCC1 [Example 371B, N-[(1S)-1-cyclohexyl-2-[4-[1-methyl-5-(trifluoromethyl)imidazol-4-yl]anilino]-2-oxo-ethyl]-2-isopropyl-pyrazole-3-carboxamide] | > 1000
4 | Cn1cncc1-c1ccc(NC(=O)[C@@H](NC(=O)c2ccnn2C)[C@@H]2CCCc3ccccc32)cc1 [Example 375, 2-Methyl-N-[(1S)-2-[4-(3-methylimidazol-4-yl)anilino]-2-oxo-1-[(1R)-tetralin-1-yl]ethyl]pyrazole-3-carboxamide] | > 1000
5 | Cn1cncc1-c1ccc(NC(=O)[C@@H](NC(=O)c2ccnn2C)[C@@H]2CCc3ccccc32)cc1 [Example 376, N-[(1S)-1-[(1R)-indan-1-yl]-2-[4-(3-methylimidazol-4-yl)anilino]-2-oxo-ethyl]-2-methyl-pyrazole-3-carboxamide] | > 1000
6 | Cn1cncc1-c1ccc(NC(=O)[C@@H](NC(=O)c2ccnn2C)[C@H]2CCc3ccccc32)cc1 [Example 377, N-[(1S)-1-[(1S)-indan-1-yl]-2-[4-(3-methylimidazol-4-yl)anilino]-2-oxo-ethyl]-2-methyl-pyrazole-3-carboxamide] | 100 to 1000
7 | Cc1nccn1-c1ccc(NC(=O)[C@@H](NC(=O)c2ccnn2C)[C@@H]2CCCc3ccccc32)cc1 [Example 378, 2-methyl-N-[(1S)-2-[4-(2-methylimidazol-1-yl)anilino]-2-oxo-1-[(1R)-tetralin-1-yl]ethyl]pyrazole-3-carboxamide] | > 1000
8 | Cc1nc[nH]c1-c1ccc(NC(=O)[C@@H](NC(=O)c2ccnn2C(C)C)C(C2CC2)C2CC2)cc1 [Example 379, N-[(1S)-1-(dicyclopropylmethyl)-2-[4-(4-methyl-1H-imidazol-5-yl)anilino]-2-oxo-ethyl]-2-isopropyl-pyrazole-3-carboxamide] | > 1000
9 | CC(C)c1nc[nH]c1-c1ccc(NC(=O)[C@@H](NC(=O)c2ccnn2C(C)C)C(C2CC2)C2CC2)cc1 [Example 380, N-[(1S)-1-(dicyclopropylmethyl)-2-[4-(4-isopropyl-1H-imidazol-5-yl)anilino]-2-oxo-ethyl]-2-isopropyl-pyrazole-3-carboxamide] | 100 to 1000
10 | CC(C)n1nccc1C(=O)N[C@H](C(=O)Nc1ccc(-c2[nH]cnc2C2CC2)cc1)C(C1CC1)C1CC1 [Example 381, N-[(1S)-2,2-dicyclopropyl-1-[[4-(4-cyclopropyl-1H-imidazol-5-yl)phenyl]carbamoyl]ethyl]-2-isopropyl-pyrazole-3-carboxamide] | 100 to 1000
11 | Cc1cn[nH]c1-c1ccc(NC(=O)[C@@H](NC(=O)c2ccnn2C(C)C)C(C2CC2)C2CC2)cc1 [Example 382, N-[(1S)-1-(dicyclopropylmethyl)-2-[4-(4-methyl-1H-pyrazol-5-yl)anilino]-2-oxo-ethyl]-2-isopropyl-pyrazole-3-carboxamide] | 100 to 1000
12 | Cc1[nH]nc(C2CC2)c1-c1ccc(NC(=O)[C@@H](NC(=O)c2ccnn2C(C)C)C(C2CC2)C2CC2)cc1 [Example 383, N-[(1S)-2,2-dicyclopropyl-1-[[4-(3-cyclopropyl-5-methyl-1H-pyrazol-4-yl)phenyl]carbamoyl]ethyl]-2-isopropyl-pyrazole-3-carboxamide] | < 100
13 | Cc1[nH]nc(C(C)C)c1-c1ccc(NC(=O)[C@@H](NC(=O)c2ccnn2C(C)C)C(C2CC2)C2CC2)cc1 [Example 386, N-[(1S)-1-(dicyclopropylmethyl)-2-[4-(3-isopropyl-5-methyl-1H-pyrazol-4-yl)anilino]-2-oxo-ethyl]-2-isopropyl-pyrazole-3-carboxamide] | < 100
14 | CC(C)c1n[nH]c(C(C)C)c1-c1ccc(NC(=O)[C@@H](NC(=O)c2ccnn2C(C)C)C(C2CC2)C2CC2)cc1 [Example 387, N-[(1S)-1-(dicyclopropylmethyl)-2-[4-(3,5-diisopropyl-1H-pyrazol-4-yl)anilino]-2-oxo-ethyl]-2-isopropyl-pyrazole-3-carboxamide] | < 100
15 | Cc1n[nH]c(C)c1-c1ccc(NC(=O)[C@@H](NC(=O)c2ccnn2CC(C)O)C(C2CC2)C2CC2)cc1 (stereo partly drawn) [Example 388, N-[(1S)-1-(dicyclopropylmethyl)-2-[4-(3,5-dimethyl-1H-pyrazol-4-yl)anilino]-2-oxo-ethyl]-2-(2-hydroxypropyl)pyrazole-3-carboxamide] | 100 to 1000
16 | Cc1[nH]nc(C2CC2)c1-c1ccc(NC(=O)[C@@H](NC(=O)c2ccnn2[C@@H](C)CO)C(C2CC2)C2CC2)cc1 [Example 389, N-[(1S)-2,2-dicyclopropyl-1-[[4-(3-cyclopropyl-5-methyl-1H-pyrazol-4-yl)phenyl]carbamoyl]ethyl]-2-[(1S)-2-hydroxy-1-methyl-ethyl]pyrazole-3-carboxamide] | < 100
17 | Cc1[nH]nc(C2CC2)c1-c1ccc(NC(=O)[C@@H](NC(=O)c2ccnn2[C@H](C)CO)C(C2CC2)C2CC2)cc1 [Example 390, N-[(1S)-2,2-dicyclopropyl-1-[[4-(3-cyclopropyl-5-methyl-1H-pyrazol-4-yl)phenyl]carbamoyl]ethyl]-2-[(1R)-2-hydroxy-1-methyl-ethyl]pyrazole-3-carboxamide] | < 100
18 | CCCn1nccc1C(=O)N[C@H](C(=O)Nc1ccc(-c2c(C3CC3)n[nH]c2C)cc1)C(C1CC1)C1CC1 [Example 391, N-[(1S)-2,2-dicyclopropyl-1-[[4-(3-cyclopropyl-5-methyl-1H-pyrazol-4-yl)phenyl]carbamoyl]ethyl]-2-propyl-pyrazole-3-carboxamide] | < 100
19 | CCn1nccc1C(=O)N[C@H](C(=O)Nc1ccc(-c2c(C3CC3)n[nH]c2C)cc1)C(C1CC1)C1CC1 [Example 392, N-[(1S)-2,2-dicyclopropyl-1-[[4-(3-cyclopropyl-5-methyl-1H-pyrazol-4-yl)phenyl]carbamoyl]ethyl]-2-ethyl-pyrazole-3-carboxamide] | < 100
20 | CCc1n[nH]c(CC)c1-c1ccc(NC(=O)[C@@H](NC(=O)c2ccnn2CCCO)C(C2CC2)C2CC2)cc1 [Example 393, N-[(1S)-1-(dicyclopropylmethyl)-2-[4-(3,5-diethyl-1H-pyrazol-4-yl)anilino]-2-oxo-ethyl]-2-(3-hydroxypropyl)pyrazole-3-carboxamide] | < 100
21 | CCc1n[nH]c(CC)c1-c1ccc(NC(=O)[C@@H](NC(=O)c2ccnn2[C@@H](C)CO)C(C2CC2)C2CC2)cc1 [Example 394, N-[(1S)-1-(dicyclopropylmethyl)-2-[4-(3,5-diethyl-1H-pyrazol-4-yl)anilino]-2-oxo-ethyl]-2-[(1S)-2-hydroxy-1-methyl-ethyl]pyrazole-3-carboxamide] | < 100
22 | CCc1n[nH]c(CC)c1-c1ccc(NC(=O)[C@@H](NC(=O)c2ccnn2[C@H](C)CO)C(C2CC2)C2CC2)cc1 [Example 395, N-[(1S)-1-(dicyclopropylmethyl)-2-[4-(3,5-diethyl-1H-pyrazol-4-yl)anilino]-2-oxo-ethyl]-2-[(1R)-2-hydroxy-1-methyl-ethyl]pyrazole-3-carboxamide] | < 100
23 | CCc1n[nH]c(CC)c1-c1ccc(NC(=O)[C@@H](NC(=O)c2ccnn2CC)C(C2CC2)C2CC2)cc1 [Example 396, N-[(1S)-1-(dicyclopropylmethyl)-2-[4-(3,5-diethyl-1H-pyrazol-4-yl)anilino]-2-oxo-ethyl]-2-ethyl-pyrazole-3-carboxamide] | < 100
24 | CCCn1nccc1C(=O)N[C@H](C(=O)Nc1ccc(-c2c(CC)n[nH]c2CC)cc1)C(C1CC1)C1CC1 [Example 397, N-[(1S)-1-(dicyclopropylmethyl)-2-[4-(3,5-diethyl-1H-pyrazol-4-yl)anilino]-2-oxo-ethyl]-2-propyl-pyrazole-3-carboxamide] | < 100
25 | CCc1n[nH]c(CC)c1-c1ccc(NC(=O)[C@@H](NC(=O)c2ccnn2C)C(C2CC2)C2CC2)cc1 [Example 398, N-[(1S)-1-(dicyclopropylmethyl)-2-[4-(3,5-diethyl-1H-pyrazol-4-yl)anilino]-2-oxo-ethyl]-2-methyl-pyrazole-3-carboxamide] | < 100
26 | CCc1n[nH]c(CC)c1-c1ccc(NC(=O)[C@@H](NC(=O)c2ccnn2C(C)C)C(C2CC2)C2CC2)cc1 [Example 399, N-[(1S)-1-(dicyclopropylmethyl)-2-[4-(3,5-diethyl-1H-pyrazol-4-yl)anilino]-2-oxo-ethyl]-2-isopropyl-pyrazole-3-carboxamide] | < 100
27 | Cc1[nH]ncc1-c1ccc(NC(=O)[C@@H](NC(=O)c2ccnn2C)C(c2ccccc2)c2ccccc2)cc1 [Example 400, N-[(1S)-1-Benzhydryl-2-[4-(3-methyl-1H-pyrazol-4-yl)anilino]-2-oxo-ethyl]-2-methyl-pyrazole-3-carboxamide] | 100 to 1000
28 | CC(C)c1ncn(C)c1-c1ccc(NC(=O)[C@@H](NC(=O)c2ccnn2C(C)C)C(C2CC2)C2CC2)cc1 [Example 401, N-[(1S)-1-(dicyclopropylmethyl)-2-[4-(5-isopropyl-3-methyl-imidazol-4-yl)anilino]-2-oxo-ethyl]-2-isopropyl-pyrazole-3-carboxamide] | 100 to 1000
